Source: ChEMBL document CHEMBL1127916, “Synthesis and biological character of 1-hydroxylated vitamin D3 Analogues” (1994)

What was measured:
HL-60 = assay: Antiproliferative activity in human promyeloid leukemia cells (HL-60); format: functional
[1] = molecular target: T1, Vitamin D-binding protein (Rattus norvegicus) (UniProt P04276); assay: Relative binding potency for rat vitamin D binding protein (DBP) by competitive displacement with [3H]1-alpha,25(OH)2D3
T1 sequence (whole entry): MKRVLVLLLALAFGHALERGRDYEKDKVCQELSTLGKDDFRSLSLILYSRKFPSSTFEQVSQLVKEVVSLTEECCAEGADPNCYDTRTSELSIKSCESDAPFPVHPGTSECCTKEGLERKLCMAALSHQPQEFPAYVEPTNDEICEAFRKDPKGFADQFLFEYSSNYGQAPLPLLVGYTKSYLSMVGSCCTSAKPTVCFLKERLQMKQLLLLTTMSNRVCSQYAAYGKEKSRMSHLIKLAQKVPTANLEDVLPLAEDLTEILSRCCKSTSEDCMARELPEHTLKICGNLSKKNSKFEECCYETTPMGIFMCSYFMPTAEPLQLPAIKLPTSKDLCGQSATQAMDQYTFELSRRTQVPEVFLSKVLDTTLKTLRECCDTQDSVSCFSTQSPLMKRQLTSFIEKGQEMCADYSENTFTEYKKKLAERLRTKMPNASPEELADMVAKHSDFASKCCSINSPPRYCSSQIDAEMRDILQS

[2] = molecular target: T2, Vitamin D3 receptor (Bos taurus) (UniProt Q28037); assay: Relative binding for bovine thymus vitamin D receptor (VDR) by displacement with [3H]1-alpha,25(OH)2D3
T2 sequence (whole entry): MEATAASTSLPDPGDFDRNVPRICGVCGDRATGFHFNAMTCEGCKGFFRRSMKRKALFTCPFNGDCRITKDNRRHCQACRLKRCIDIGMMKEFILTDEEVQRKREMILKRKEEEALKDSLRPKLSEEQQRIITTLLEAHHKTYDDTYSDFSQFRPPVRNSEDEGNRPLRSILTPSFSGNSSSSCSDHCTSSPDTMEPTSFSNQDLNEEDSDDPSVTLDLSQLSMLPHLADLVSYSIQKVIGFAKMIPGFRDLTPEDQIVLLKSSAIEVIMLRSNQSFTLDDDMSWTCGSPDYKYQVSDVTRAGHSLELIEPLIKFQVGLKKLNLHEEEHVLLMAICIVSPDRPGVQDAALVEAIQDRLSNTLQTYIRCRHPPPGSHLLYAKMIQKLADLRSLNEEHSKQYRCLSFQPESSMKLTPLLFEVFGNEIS

Relative binding potency [1] | Relative binding potency [2] | SMILES | Relative potency (HL-60)
4.1 | 0.7 | C=C1/C(=C\C=C2/CCC[C@@]3(C)C2CC[C@@H]3[C@H](C)CCCC(C)(C)O)C[C@@H](O)[C@@H](OCCCO)[C@@H]1O (stereo partly specified) | 
6.7 | 0.003 | C=C1/C(=C\C=C2/CCC[C@@]3(C)C2CC[C@@H]3[C@H](C)CCCC(C)(C)O)C[C@@H](O)[C@@H](OCCCO)[C@H]1O (stereo partly specified) | 

The next lines start with the compound.

SMILES | Relative binding potency [1] | Relative binding potency [2] | Relative potency (HL-60)
C=C1/C(=C\C=C2/CCC[C@@]3(C)C2CC[C@@H]3[C@H](C)OCCC(C)(C)O)C[C@@H](O)C[C@H]1O (stereo partly specified) | 0.007 | 0.007 | 0.003
C=C1/C(=C\C=C2/CCC[C@]3(C)[C@@H]([C@H](C)OCCC(C)(C)O)CC[C@@H]23)C[C@@H](O)C[C@@H]1O [MAXACALCITOL] | 0.002 | 0.6 | 3.1
C=C1/C(=C\C=C2/CCC[C@@]3(C)C2CC[C@@H]3[C@H](C)CCCC(C)(C)O)C[C@@H](O)C[C@H]1O (stereo partly specified) | 2.9 | 0.2 | 0.2
C=C1/C(=C\C=C2/CCC[C@]3(C)[C@@H]([C@H](C)CCCC(C)(C)O)CC[C@@H]23)C[C@@H](O)C[C@@H]1O [CALCITRIOL] | 1 | 1 | 1
